Reference: patent publication US20240207265A1, “TREATMENT OF CNS DISEASES WITH sGC STIMULATORS” (Tisento Therapeutics Inc., priority 2021, published 2024)

Assays:
sGC enzyme = experiment: cGMP GloSensor cell-based assay, 384-well format (HEK293); parameters: species or system human; settings: HEK293 GloSensor 40F cGMP cells, 10 μM DETA-NONOate, geometrical mean; read-out: Glo EC50
Source text: Human embryonic kidney cells (HEK293) cells expressing GloSensor™ 40F cGMP (Part No: CS182801, Promega) were used to evaluate the activity of test compounds. The luminescent biosensors (engineered luciferase) that were incorporated into these cells detect cGMP formed by the compounds stimulating the sGC enzyme and emit luminescence.
cGMP GloSensor cells were maintained in Dulbecco's Modification of Eagle's Medium (DMEM) supplemented with fetal bovine serum (FBS, 10% final) and hygromycine (200 ug/ml). The day before assay, cells were plated in DMEM with 10% FBS in a 50 μL volume at a density of 1.5×10^4 cells/well in a poly-D-lysine coated 384-well flat white-bottom plate (Corning Cat No 35661). Cells were incubated overnight at 37° C. in a humidified chamber with 5% CO2. The next day, medium was removed and cells were replaced with 40 ul/well of GloSensor™, 2 mM (Promega Cat No E1291). Cells were treated for 90 minutes at 25° C. to allow the substrate to equilibrate in the cells. Test compounds and Diethylenetriamine NONOate (DETA-NONOate) was diluted to 3 mM (20×) in serum-free CO2 independent medium and serially diluted at 4× dilutions to create 5× dose curve from which 10 ul was added to the wells (x μM concentration for test compound solution and 10 μM concentration for DETA-NONOate solution; wherein x is one of the following final concentrations: 30 μM, 7.5 μM, 1.9 μM, 469 nM, 117 nM, 29.3 nM, 7.3 nM, 1.83 nM, 0.46 nM, 0.11 nM, 0.03 nM) For the kinetics studies, luminescense was measured right away for 0.2 sec per well with Envision (Perkin Elmer). For endpoint SAR screening, data were collected after 55 min incubation at room temperature.
(§1) Concentration response data were analyzed using a 4-parameter fit (log (agonist) vs. response-variable slope). The EC50 was interpolated from the curve fit and is defined as the concentration at which the compound elicits 50% of its maximal response. When the experiment was carried out multiple times for a given compound, the geometrical mean of all experiments is reported.

sGC = experiment: cGMP neuronal cell-based assay (rat primary neurons); settings: rat primary hippocampal neurons, DETA-NO 10 μM or 30 μM, cGMP by LC-MS/MS; read-out: sGC Neuron EC50
Procedure: Rat primary neurons were isolated from fetuses of 18-day pregnant Sprague-Dawley females. The fetuses were collected in Hanks' balanced salt solution (HBSS) and brains were rapidly removed. The cerebral hippocampi were isolated and mechanically fragmented. Further tissue digestion was performed with 0.25% (wt/vol) trypsin solution in HBSS without Ca2+ and Mg2+ for 15 min at 37° C. After trypsination, cells were washed and resuspended in neurobasal medium supplemented with 0.5 mM L-glutamine, 12.5 uM glutamic acid, 2% B-27 and 100 U/mL penicillin, and 100 μg/mL streptomycin. Cells were plated at a density of 26×10^3 or 3×10^4 or 4×10^4 cells/well in a poly-D-lysine coated 384-well flat clear-bottom plate (Corning Cat No 354662). Cells were incubated 6-7 days at 37° C. in a humidified chamber with 5% CO2. Media was removed and cells were washed 1× with HBSS containing Ca2+ and Mg2+, and replaced with 40 uL HBSS containing 0.5 mM IBMX, and incubated for 15 minutes at 37° C. 10 uL of a 5× stock of test compounds with diethylenetriamine NONOate (DETA-NO) was added. Final concentration of DETA-NO was either 10 μM or 30 μM. Cells were incubated for 20 min at 37° C. Medium was removed, 50 uL of ice-cold 10% acetic acid was added, and incubated for 60 minutes at 4° C. Following centrifugation at 4° C. for 5 minutes at 1000×g to pellet cell debris, the supernatant was aspirated to a clean plate and the samples were analyzed for cGMP content. cGMP concentrations were determined from each sample using LC-MS/MS.
as §1

[1] = Rat cerebrospinal fluid (CSF) pharmacokinetics; type: in vivo; settings: male, Sprague-Dawley; rat CSF/unbound plasma, PO 3 mg/kg
Procedure: PK in rats was determined following oral dosing. For the oral (PO) experiments, a group of 6 male Sprague-Dawley rats with an indwelling catheter placed in the cisterna magna were used. The PO group was dosed with 3.0, or 10 mg/kg of a compound formulated as a solution in PEG400 or suspension in 0.5% Tween 80 and 0.5% Methylcellulose in water. PO doses were administered by oral gavage and delivered to the stomach using a syringe and gavage tube. Following oral dosage administration, the gavage tube was flushed with approximately 0.5 mL of water to ensure complete delivery of the full dose.
Plasma samples were collected as follows: samples of CSF and blood were collected at 1 hour, 2, and optionally at 4 hours post-dosing. CSF samples (0.05 mL) were collected through the intracisternal catheter. Blood samples (0.25 mL) were collected through tail nick sampling. These samples were kept on ice until processed for plasma. Blood samples were centrifuged at 3200 rpm for 5 minutes at approximately 5° C. within 1 hour of collection. Plasma was directly transferred to individual Eppendorf tubes (0.125 mL). Plug caps were placed on the tubes and the tubes frozen at approximately −70° C. and stored until analysis. Plasma and CSF was collected and analyzed for the presence of a compound.
The compound in question and the internal standard were extracted from plasma by precipitation and from CSF by either precipitation or dilution. Samples were analyzed using liquid chromatography (LC) with tandem mass spectrometric detection (MS/MS) using electrospray ionization. The standard curve ranged from 0.1 to 1000 ng/mL. Results of the compounds described herein in this assay are illustrated in Table G below (for a 10 mg/kg dose and/or 3 mg/kg of the compound). Compound concentrations from several animals were combined to give the geometrical mean at each specific dosage and timepoint.
Kp,uu is defined as the concentration ratio of unbound drug in CSF to unbound drug in plasma. Unbound drug in plasma (or free plasma concentration) is calculated by multiplying the total plasma concentration by the unbound fraction as determined by plasma protein binding. The CSF concentration is then divided by the free plasma concentration to determine the Kp,uu. (See e.g., Di et al., J. Med. Chem., 56, 2-12 (2013))

| EC50 (sGC enzyme) | EC50 (sGC) | Kp uu at 1 h [1] | Kp uu at 2 h [1] | Kp uu at 4 h [1] | Structure (SMILES) |
| --- | --- | --- | --- | --- | --- |
| ≤ 100 nM | ≤ 100 nM | – | – | – | Cc1ccc(Cc2nc(-c3ncc(F)c(O)n3)cn3ccnc23)cc1F [Compound I-6, 5-Fluoro-2-(8-(3-fluoro-4-methylbenzyl)imidazo[1,2-a]pyrazin-6-yl)pyrimidin-4-ol] |
| 100 to 1000 nM | ≤ 100 nM | – | – | – | Oc1nc(-c2cn3ccnc3c(Cc3cc(F)cc(F)c3)n2)ncc1F [Compound I-7, 2-(8-(3,5-Difluorobenzyl)imidazo[1,2-a]pyrazin-6-yl)-5-fluoropyrimidin-4-ol] |
| 100 to 1000 nM | ≤ 100 nM | – | – | – | Oc1nc(-c2cn3ncnc3c(Cc3cc(F)ccc3F)n2)ncc1F [Compound I-12, 2-(8-(2,5-Difluorobenzyl)-[1,2,4]triazolo[1,5-a]pyrazin-6-yl)-5-fluoropyrimidin-4-ol] |
| 100 to 1000 nM | – | – | – | – | Oc1nc(-c2cn3ncnc3c(Cc3cc(F)cc(F)c3)n2)ncc1F [Compound I-13, 2-(8-(3,5-Difluorobenzyl)-[1,2,4]triazolo[1,5-a]pyrazin-6-yl)-5-fluoropyrimidin-4-ol] |

Second part, the compound before the results:

| Structure (SMILES) | EC50 (sGC enzyme) | EC50 (sGC) | Kp uu at 1 h [1] | Kp uu at 2 h [1] | Kp uu at 4 h [1] |
| --- | --- | --- | --- | --- | --- |
| Oc1nc(-c2cn3ccnc3c(Cc3cccc(F)c3)n2)ncc1F [Compound I-1, 5-fluoro-2-(8-(3-fluorobenzyl)imidazo[1,2-a]pyrazin-6-yl)pyrimidin-4-ol] | 100 to 1000 nM | 100 to 1000 nM | ≤ 1 | 1 to 2 | ≤ 1 |
| Cc1c(F)cc(Cc2nc(-c3ncc(F)c(O)n3)cn3ccnc23)cc1F [Compound I-3, 5-Fluoro-2-(8-(3,5-difluoro-4-methylbenzyl)imidazo[1,2-a]pyrazin-6-yl)pyrimidin-4-ol] | ≤ 100 nM | ≤ 100 nM | – | – | – |
| Cc1cnc(-c2cn3ccnc3c(Cc3ccccc3F)n2)nc1O [Compound I-8, 2-(8-(2-fluorobenzyl)imidazo[1,2-a]pyrazin-6-yl)-5-methylpyrimidin-4-ol] | > 1000 nM | – | – | – | – |
| Oc1nc(-c2cn3c(F)cnc3c(Cc3ccccc3F)n2)ncc1F [Compound I-9] | 100 to 1000 nM | ≤ 100 nM | – | – | – |
| Oc1nc(-c2cn3ncnc3c(Cc3cccc(F)c3F)n2)ncc1F [Compound I-10, 2-(8-(2,3-Difluorobenzyl)-[1,2,4]triazolo[1,5-a]pyrazin-6-yl)-5-fluoropyrimidin-4-ol] | 100 to 1000 nM | – | – | – | – |
| Oc1nc(-c2cn3ncnc3c(Cc3cccc(F)c3)n2)ncc1F [Compound I-11, 5-Fluoro-2-(8-(3-fluorobenzyl)-[1,2,4]triazolo[1,5-a]pyrazin-6-yl)pyrimidin-4-ol] | 100 to 1000 nM | – | – | – | – |
